Reference: US20250270316A1, “PHARMACEUTICAL COMBINATION AND USE THEREOF” (TIANJIN LIPOGEN TECHNOLOGY CO., LTD, priority 2021, published 2025)
“And” between values parts separate entries of the source, which are not always exact repeats. Identical values can stand only once.

How the values were obtained:
Format in all cases: in vivo, mouse
[1] = test system: colorectal cancer MC38 humanized CD274 cell; assay: Example 8: MC38 humanized CD274 xenograft model, RB0005 and Gardiquimod; conditions: i.t. every other day x3; RB0005 1 mg/kg, Gardiquimod 5 mg/kg, combination as single preparation
Description: (§1) Tumor cells were cultured and passaged, cells were collected at the logarithmic phase, and formulated into a concentration of (1.0×10^7) per milliliter of cell suspension with 0.1 ml (with a cell number of 1.0×10^6) being injected into the right flank of the mice, the tumor grew to a diameter of about 5 mm within about 10 days, and the model was successfully established, they were randomly divided into 8 groups.
(§2) Tumor weight inhibitory rate=[1−average tumor weight of experimental group (G2/G3/G4)/average tumor weight of negative control group G1)]×100%.
Anti-Tumor Effect of Pharmaceutical Combination Consisting of PD-L1 Inhibitor RB0005 and Other Types of TLR7/8 Agonists (Gardiquimod)
(§3) After a colorectal cancer MC38 humanized CD274 cell subcutaneously-Xenograft tumor model in mice was successfully established, random grouping was performed, and each group had 6-8 mice, which were administered once every two days with a total of 3 times.

[2] = test system: colorectal carcinoma MC38; assay: Example 1: MC38 subcutaneous xenograft tumor model in mice, RB0005 and Imiquimod; conditions: as of the end; i.t. every other day; RB0005 1 mg/kg, Imiquimod 5 mg/kg, combination in single dosage form; tumor volume >2000 mm^3 counted as death
Description: C57/BL6JNifdc mouse, female, body weight of 17-22 g, aged 6-8 weeks, SPF grade, purchased from Beijing Vital River Laboratory Animal Technology Co., Ltd. [Experimental Animal Quality Certificate No.: SCXK (Beijing) 2016-0006].
as §1, §2
The anti-tumor effect of a pharmaceutical combination composed of PD-L1 inhibitor RB0005 and a TLR7/TLR8 agonist Imiquimod (LPG2005) was tested using a xenograft tumor model, i.e., the inhibitory effect on the growth of subcutaneous xenograft tumor in mice.
After successfully establishing a subcutaneous xenograft tumor model of colorectal carcinoma MC38 in mice, it was randomly grouped with 6-8 mice per group. The mice were administered once every two days, with a total of three times followed by observation until 15 days.

[3] = test system: colorectal carcinoma MC38 (humanized PD-1 model); assay: Example 2: humanized PD-1 MC38 subcutaneous xenograft tumor model in mice, RB0004 and Imiquimod; conditions: Imiquimod 5 mg/kg i.t., RB0004 10 mg/kg i.p.
Description: as §1, §2
The anti-tumor effect of a pharmaceutical combination composed of PD-1 inhibitor RB0004 and a TLR7/TLR8 agonist Imiquimod was tested using a xenograft tumor model, i.e., the inhibitory effect on the growth of subcutaneous xenograft tumor in mice.
After successfully establishing a humanized PD-1 subcutaneous xenograft tumor model of colorectal carcinoma MC38 in mice, they were randomly grouped with 8 mice per group and administered once every two days.

[4] = test system: colorectal cancer MC38; assay: Example 3: MC38 xenograft tumor model in mice, RB0005 and different doses of Imiquimod; conditions: i.t. every other day x3; RB0005 1 mg/kg (G2), Imiquimod 5 mg/kg (G5), both in single dosage form (G8)
Description: as §1, §2
A colorectal cancer MC38 Xenograft tumor model in mice was used to test an anti-tumor effect of a pharmaceutical combination consisting of a PD-L1 inhibitor RB0005 and different doses of TLR7/TLR8 agonists Imiquimod, that is, the inhibitory effect on the growth of subcutaneous xenograft tumor in mice.
After a subcutaneous xenograft tumor model in mice was successfully established, random grouping was performed, and each group had 8 mice, which were administered once every two days.

[5] = test system: colorectal cancer MC38 humanized CD274 cell; assay: Example 6: MC38 humanized CD274 xenograft model, LPG2006 single dosage form with different Imiquimod doses; conditions: i.t. every other day x3
Description: as §1, §2, §3

[6] = test system: colorectal cancer MC38 humanized CD274 cell; assay: Example 7: MC38 humanized CD274 xenograft model, intraperitoneal vs intratumoral administration; conditions: every other day x3
Description: as §1, §2, §3

[7] = test system: colorectal cancer MC38 humanized PD1; assay: Example 10.1: MC38 humanized PD1 xenograft model, marketed PD-1 inhibitors and Imiquimod; conditions: i.t. every other day x3; PD-1 antibody 10 mg/kg, Imiquimod (LPG2005) 5 mg/kg, combinations as single preparation
Description: as §1, §2
10.1 Anti-Tumor Effect of Composite Preparation (Single Dosage Form) Consisting of a Marketed PD-1 or PD-L1 Inhibitor and a TLR7/8 Agonist Imiquimod
After a colorectal cancer MC38 humanized PD1 subcutaneous xenograft tumor model was successfully established, random grouping was performed, and each group had 6-8 mice, which were administered once every two days with a total of 3 times.

[8] = test system: colorectal cancer MC38 humanized CD274 cell; assay: Example 10.2: MC38 humanized CD274 xenograft model, Durvalumab or RB0005 and Imiquimod; conditions: i.t. every other day x3; Durvalumab or RB0005 1 mg/kg, Imiquimod (LPG2005) 5 mg/kg, combinations as single preparation
Description: as §1, §2, §3

[9] = test system: colorectal cancer CT26 humanized CD274 cell; assay: Example 11: CT26 humanized CD274 xenograft model, LPG2006; conditions: CT26.sgcd274 CD274, i.t. every other day x3, Imiquimod 5 mg/kg
Description: as §1, §2
Combination LPG2006 (Single Dosage Form) Consisting of PD-L1 Inhibitor RB0005 and Imiquimod, CT26 Tumor Model
After a colorectal cancer CT26 humanized CD274 cell subcutaneous xenograft tumor model in mice was successfully established, random grouping was performed, and each group had 6-8 mice, which were administered once every two days with a total of 3 times.

[10] = test system: colorectal cancer MC38 humanized CD274 cell; assay: Example 12: MC38 humanized CD274 xenograft model, sequential administration of Imiquimod and RB0005; conditions: i.t.; RB0005 1 mg/kg, Imiquimod 5 mg/kg; G4 sequential: agonist first, PD-L1 inhibitor after 48 h, total of 3 times
Description: as §1, §2

[11] = test system: colorectal cancer MC38 humanized CD274 cell; assay: Example 9: MC38 humanized CD274 xenograft model, RB0005 and Resiquimod; conditions: i.t. every other day x3; RB0005 1 mg/kg, Resiquimod 5 mg/kg, combination as single preparation
Description: as §1, §2
Anti-Tumor Effect of Pharmaceutical Combination Consisting of PD-L1 Inhibitor RB0005 and Other Types of TLR7/8 Agonists (Resiquimod)
as §3

[12] = Imiquimod 6.32 mg/kg (G4), with RB0005 1 mg/kg in single dosage form (G7)
[13] = Imiquimod 20 mg/kg (G5), with RB0005 1 mg/kg in single dosage form (G8)
[14] = RB0005 1 mg/kg (G2), Imiquimod 2 mg/kg (G3), both in single dosage form (G6)
[15] = intratumoral injection, RB0005 1 mg/kg (G4), Imiquimod 5 mg/kg (G6), LPG2006 single preparation (G8)

CCNCc1nc2c(N)nc3ccccc3c2n1CC(C)(C)O [Gardiquimod]
IRTW (tumor weight inhibition rate) [1]: 42% and 41.6%
Tumor Weight [1]: 1.81 g

CC(C)Cn1cnc2c(N)nc3ccccc3c21 [Imiquimod]
survival rate in mice [2]: 50%
IRTW (tumor weight inhibition rate) ([3]; every other day x3): 42.71%
Tumor Weight ([3]; every other day x3): 3.62 g
survival rate in mice ([3]; as of the end, every other day x3, combination in separate dosage forms): 40%
growth of the tumor volume ([3]; vs solvent control): slower than that in the solvent control group
IRTW (tumor weight inhibition rate) [4]: 23.35%
Tumor Weight [4]: 2.70 g
IRTW (tumor weight inhibition rate) [5, 12]: 58.5%
Tumor Weight [5, 12]: 2.0 g
IRTW (tumor weight inhibition rate) [5, 13]: 47.4%
Tumor Weight [5, 13]: 1.8 g
IRTW (tumor weight inhibition rate) [5, 14]: 27.5%
Tumor Weight [5, 14]: 2.5 g
Tumor Weight ([6]; intraperitoneal injection, RB0005 1 mg/kg (G3), Imiquimod 5 mg/kg (G5), LPG2006 single preparation (G7)): 3.74 g
IRTW (tumor weight inhibition rate) [6, 15]: 23.5%
Tumor Weight [6, 15]: 2.6 g
Tumor Weight [7]: 1.93 g
IRTW (tumor weight inhibition rate) [8]: 48.8%
Tumor Weight [8]: 0.73 g
IRTW (tumor weight inhibition rate) ([9]; LPG2006 (RB0005 1 mg/kg + LPG2005 5 mg/kg)): 42%
Tumor Weight ([9]; RB0005 1 mg/kg, LPG2006 single preparation): 1.05 g
IRTW (tumor weight inhibition rate) [10]: 34.8%
Tumor Weight [10]: 1.30 g

CCOCc1nc2c(N)nc3ccccc3c2n1CC(C)(C)O [Resiquimod]
IRTW (tumor weight inhibition rate) [11]: 40% and 40.2%
Tumor Weight [11]: 1.81 g

Durvalumab: marketed anti PD-L1 monoclonal antibody
IRTW (tumor weight inhibition rate) [8]: 21% and 20.9%
Tumor Weight [8]: 1.13 g

Sintilimab: marketed PD-1 inhibitor monoclonal antibody
IRTW (tumor weight inhibition rate) [7]: 3.9%
Tumor Weight [7]: 1.47 g

Toripalimab: marketed PD-1 inhibitor monoclonal antibody
IRTW (tumor weight inhibition rate) [7]: 49.7%
Tumor Weight [7]: 0.92 g

B1: Tislelizumab: marketed PD-1 inhibitor monoclonal antibody (antibody, chains of the INN, looked up)
heavy: QVQLQESGPGLVKPSETLSLTCTVSGFSLTSYGVHWIRQPPGKGLEWIGVIYADGSTNYNPSLKSRVTISKDTSKNQVSLKLSSVTAADTAVYYCARAYGNYWYIDVWGQGTTVTVSSASTKGPSVFPLAPCSRSTSESTAALGCLVKDYFPEPVTVSWNSGALTSGVHTFPAVLQSSGLYSLSSVVTVPSSSLGTKTYTCNVDHKPSNTKVDKRVESKYGPPCPPCPAPPVAGGPSVFLFPPKPKDTLMISRTPEVTCVVVAVSQEDPEVQFNWYVDGVEVHNAKTKPREEQFNSTYRVVSVLTVVHQDWLNGKEYKCKVSNKGLPSSIEKTISKAKGQPREPQVYTLPPSQEEMTKNQVSLTCLVKGFYPSDIAVEWESNGQPENNYKTTPPVLDSDGSFFLYSKLTVDKSRWQEGNVFSCSVMHEALHNHYTQKSLSLSLG
light: DIVMTQSPDSLAVSLGERATINCKSSESVSNDVAWYQQKPGQPPKLLINYAFHRFTGVPDRFSGSGYGTDFTLTISSLQAEDVAVYYCHQAYSSPYTFGQGTKLEIKRTVAAPSVFIFPPSDEQLKSGTASVVCLLNNFYPREAKVQWKVDNALQSGNSQESVTEQDSKDSTYSLSSTLTLSKADYEKHKVYACEVTHQGLSSPVTKSFNRGEC
IRTW (tumor weight inhibition rate) [7]: 61.4%
Tumor Weight [7]: 0.59 g

B2: Camrelizumab: marketed PD-1 inhibitor monoclonal antibody (antibody, chains of the INN, looked up, V domains shown)
VH: EVQLVESGGGLVQPGGSLRLSCAASGFTFSSYMMSWVRQAPGKGLEWVATISGGGANTYYPDSVKGRFTISRDNAKNSLYLQMNSLRAEDTAVYYCARQLYYFDYWGQGTTVTVSS
VL: DIQMTQSPSSLSASVGDRVTITCLASQTIGTWLTWYQQKPGKAPKLLIYTATSLADGVPSRFSGSGSGTDFTLTISSLQPEDFATYYCQQVYSIPWTFGGGTKVEIK
IRTW (tumor weight inhibition rate) [7]: 19.6%
Tumor Weight [7]: 1.23 g
